What was measured:
STING AQ-variant = target: T1, STING AQ-variant (Homo sapiens, UniProt Q86WV6, G230A/H232R/R293Q); test: IRF-inducible SEAP reporter assay in THP1-Blue ISG cells, STING AQ-variant; format: cell-based; conditions: 24 hours incubation
T1 construct: expressed in transfected cells; host or cells: THP1-Blue ISG hSTING KO clone, retroviral MSCV-ires-GFP-Blasti
Text: (§1) In Vitro Cytokine Induction Measured Via Activation of an Interferon Regulatory Factor Inducible Reporter Gene
(§2) Activation of the STING protein expressed in cell lines results in an increase of interferon production. By the stable integration of an interferon regulatory factor (IRF)-inducible SEAP gene (secreted embryonic alkaline phosphatase) reporter construct the functional interferon signaling pathway can be monitored. Using Invivogen's THP1-Blue™ ISG colorimetric enzyme assay and a suitable optical density (OD) reader the activity of SEAP can be detected and quantified. This technique could be used to characterize pharmacological modification of the STING pathway.
(§3) Several single nucleotide polymorphisms have been identified in the human STING gene. To determine the activity of the above described compounds, THP1-Blue™ ISG reporter cell lines expressing the different human STING variants have been generated. To do so, the endogenous human STING was first deleted using the CRISPR/CAS9 system: THP1-Blue ISG cells were electroporated with ALL-IN-ONE CRISPR plasmids targeting the STING gene (purchased from Sigma encoding the gRNA and GFP as a reporter gene for successful transduction). GFP positive cells then were sorted 24 h post transfection and expanded. Cells were then dispersed in semisolid methocel medium to allow single cell clone isolations. Clones were then screened for cGAMP responsiveness using the Quanti-Blue™ reporter assay. Non-responsive clones were subsequently analysed for STING loss by western blotting and sequencing of the STING locus.
(§4) For the overexpression of the human STING variants, a confirmed THP1-Blue™ ISG hSTING KO clone was transduced with individual retroviral plasmids (MSCV-ires-GFP-Blasti) encoding the allelic variants of hSTING (WT (H232R), HAQ, R232H, AQ and R293Q). Transduced cells were sorted for different levels of GFP fluorescence and STING allele expression was analysed by western blot.
(§5) Measurements of SEAP activity were performed in THP1-Blue™ ISG cells stably expressing the different human STING isoforms and the IRF-inducible SEAP reporter construct. Cells were cultivated in RPMI1640 medium with 10% fetal calf serum, 50 μg/ml Penicillin-Streptomycin, 100 μg/ml Zeocin, and 100 μg/ml Normocin in a 37°, 95% humidity and 5% CO2 incubator.
(§6) In preparation for the assay, the cells were distributed into the assay plates with a density of 10000 cells/15 μL per well. Compounds were prepared by an 8 point serial dilution in 50% aqueous DMSO and a final dilution step into medium to ensure a final DMSO concentration of 0.5% in the assay. 5 μL of diluted compounds were added to the plates, followed by a 24 hours incubation at 37° C.
(§7) At the day of the assay, 75 μl per well of Quanti-Blue™ reagent was added to all wells of the plate and the plate was incubated another 30 minutes at 37° C. The OD at 620 nm was measured on the EnVision reader (PerkinElmer).
(§8) EC50 values and Hill slopes were derived from 8-point four parametric non-linear curve fittings with the Megalab software (Boehringer Ingelheim) using the OD at 620 nm.
(§9) Data of EC50 values can be found in tables 2a-2e.
Data of EC50 values on STING AQ-variant can be found in table 2e: […]

STING R232H-variant = target: T2, STING R232H-variant (Homo sapiens, UniProt Q86WV6); test: IRF-inducible SEAP reporter assay in THP1-Blue ISG cells, STING R232H-variant; format: cell-based; conditions: 24 hours incubation
T2 construct: expressed in transfected cells; host or cells: THP1-Blue ISG hSTING KO clone, retroviral MSCV-ires-GFP-Blasti
T2 sequence (Q86WV6 whole entry, stated change not applied): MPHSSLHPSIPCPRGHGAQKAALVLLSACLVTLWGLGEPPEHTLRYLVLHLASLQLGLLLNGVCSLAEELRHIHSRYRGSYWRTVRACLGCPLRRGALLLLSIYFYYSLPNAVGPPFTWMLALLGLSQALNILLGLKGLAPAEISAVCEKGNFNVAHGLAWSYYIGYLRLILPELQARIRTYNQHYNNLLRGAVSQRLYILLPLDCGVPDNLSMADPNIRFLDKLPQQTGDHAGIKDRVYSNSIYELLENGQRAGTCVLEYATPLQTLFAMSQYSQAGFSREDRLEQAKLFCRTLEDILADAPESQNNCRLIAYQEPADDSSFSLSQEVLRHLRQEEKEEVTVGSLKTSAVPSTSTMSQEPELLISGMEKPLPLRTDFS
Text: as §1, §2, §3, §4, §5, §6, §7, §8, §9
Data of EC50 values on STING R232H-variant can be found in table 2c: […]

STING R293Q-variant = target: T3, STING R293Q-variant (Homo sapiens, UniProt Q86WV6, H232R/R293Q); test: IRF-inducible SEAP reporter assay in THP1-Blue ISG cells, STING R293Q-variant; format: cell-based; conditions: 24 hours incubation
T3 construct: expressed in transfected cells; host or cells: THP1-Blue ISG hSTING KO clone, retroviral MSCV-ires-GFP-Blasti
T3 sequence (Q86WV6 whole entry H232R/R293Q): as the sequence (Q86WV6 whole entry, stated change not applied) above, with H232R, R293Q counted along it
Text: as §1, §2, §3, §4, §5, §6, §7, §8, §9
Data of EC50 values on STING R293Q-variant can be found in table 2d: […]

STING HAQ-variant = target: T4, STING HAQ-variant (Homo sapiens, UniProt Q86WV6, G230A/H232R/R293Q/R71H); test: IRF-inducible SEAP reporter assay in THP1-Blue ISG cells, STING HAQ-variant; format: cell-based; conditions: STING HAQ-variant (parental or re-introduced), 24 hours incubation
T4 construct: parental THP1-Blue™ ISG cell lines (which express endogenously HAQ); host or cells: THP1-Blue ISG (parental, endogenous HAQ) or STING-KO clone re-transduced with HAQ (MSCV-ires-GFP-Blasti)
T4 sequence (Q86WV6 whole entry R71H/G230A/H232R/R293Q): as the sequence (Q86WV6 whole entry, stated change not applied) above, with R71H, G230A, H232R, R293Q counted along it
Text: as §1, §2, §3, §4, §5, §6, §7, §8, §9
Data of EC50 values on STING HAQ-variant can be found in table 2a. Shown data below were either derived from the parental THP1-Blue™ ISG cell lines (which express endogenously HAQ) or from genetically engineered THP1-Blue™ ISG cell lines in which first STING has been knocked-out and the HAQ specific STING isoform has been re-introduced as described above.

STING H232R-variant = target: T5, STING H232R-variant (Homo sapiens, UniProt Q86WV6, H232R); test: IRF-inducible SEAP reporter assay in THP1-Blue ISG cells, STING H232R-variant; format: cell-based; conditions: STING H232R-variant (WT), 24 hours incubation
T5 construct: expressed in transfected cells; host or cells: THP1-Blue ISG hSTING KO clone, retroviral MSCV-ires-GFP-Blasti
T5 sequence (Q86WV6 whole entry H232R): as the sequence (Q86WV6 whole entry, stated change not applied) above, with H232R counted along it
Text: as §1, §2, §3, §4, §5, §6, §7, §8, §9
Data of EC50 values on STING H232R-variant can be found in table 2b: […]

in vitro = conditions: human, Caco-2, pH 7.4
[1] = tested on: Human STING (hSTING, residues 155-341); test: Interaction with hSTING as determined by Differential Scanning Fluorimetry (DSF); format: binding; conditions: 100 μM test compounds, 5 μM target protein
Method: Interaction with hSTING as Determined by Differential Scanning Fluorimetry (DSF)
In DSF, the temperature at which a protein unfolds, also called the melting temperature Tm, is measured by changes in fluorescence of a dye that binds to the hydrophobic parts of the protein. Tm shifts upon binding of a small molecule are correlated with the binding affinity of this small molecule. As target protein, Human STING (hSTING, residues 155-341, MW: 21578.4 Da; protein stock solution: c=1302 μM stock solution in 20 mM Tris, 100 mM NaCl, 2 mM TCEP pH 8.8) was used, as assay buffer 20 mM Tris, 150 mM NaCI pH7.5 was added where and as necessary.
Final concentrations of components in assay: 100 μM test compounds, 5 μM target protein, “5×” SYPR Orange (from stock solution SYPRO orange solution in DMSO (invitrogen cat.-no. S6650-500 ul), concentration “5000×”)
1) Dilutions of compound stock solutions (10 mM in DMSO) were prepared in assay buffer (20 mM Tris, 150 mM NaCl; pH7.5)
2) 5 μl fluorescent dye stock solution (5000×SYPRO Orange in DMSO) was mixed with 19 μl target protein (1302 μM) and 976 μl assay buffer.
3) 2 μl of this protein-dye-mixture (25×SYPRO Orange and 25 μM Protein) was added to 8 μl diluted compound solution as prepared in step 1. Final volume was 10 μl.
4) With every 20 compounds, two negative controls were measured.
5) The plates were prepared for duplicate measurement and centrifuged for 2 min at 1000 g.
6) For the measurement, a CFX384 Real-Time System (Bio-Rad) was used. The run consisted of 140 cycles with 0.5° C./cycle (temperature ramp 15 s/cycle, 25° C. to 95° C.).
Data analysis: The melting curves were processed in Bio-Rad CFX Manager. Peak type was set to “negative”. Two replicates of TM (melting temperature) measurements were averaged and the standard deviation was calculated.

T1 sequence (Q86WV6 whole entry G230A/H232R/R293Q): as the sequence (Q86WV6 whole entry, stated change not applied) above, with G230A, H232R, R293Q counted along it

Row | EC50 (STING AQ-variant) | EC50 (STING R232H-variant) | EC50 (STING R293Q-variant) | EC50 (STING HAQ-variant) | EC50 (STING H232R-variant) | Papp A→B at 10 μM (in vitro) | efflux ratio at 10 μM (in vitro) | Compound | thermal shift (ΔTm) [1]
1 | 0.8 µM | 0.7 µM | 0.8 µM | 1.6 µM | 0.7 µM | 16 ×10⁻⁶ cm/s | 1 | Cc1cc2c(-c3nn(-c4ccc(N5CC6C(C5)C6C(=O)O)nc4)c4c(C)cccc34)cccn2n1 (stereo not drawn) [compound 68, 3-[5-(7-methyl-3-{2-methylpyrazolo[1,5-a]pyr-idin-4-yl}-1H-indazol-1-yl)pyridin-2-yl]-3-azabicy-clo[3.1.0]hexane-6-car-boxylic acid] | 24 K
2 | 0.1 µM | 0.05 µM | 0.1 µM | 0.1 µM | 0.03 µM | 9 ×10⁻⁶ cm/s | 4.8 | Cc1c(CO)ccc2c(-c3cccc4nn(C)cc34)nn(-c3ccc(N4CCC(S(C)(=O)=O)CC4)nc3)c12 [compound 75, {1-[6-(4-methanesul-fonylpiperidin-1-yl)pyridin-3-yl]-2′,7-dimethyl-1H,2′H-[3,4′-biindazol]-6-yl}meth-anol] | 26 K
3 | 2.1 µM | 0.8 µM | 2.2 µM | 3 µM | 0.4 µM | 21 ×10⁻⁶ cm/s | 0.6 | Cc1cccc2c(-c3cccc4nn(C)cc34)nn(-c3ccc(N4CCC(NS(C)(=O)=O)CC4)nc3)c12 [compound 56, N-[1-(5-{2′,7-dimethyl-1H,2′H-[3,4′-biindazol]-1-yl}pyridin-2-yl)piperidin-4-yl]methanesulfonamide] | 20 K
4 | 1.2 µM | 0.7 µM | 1.7 µM | 2.3 µM | 0.8 µM | 21 ×10⁻⁶ cm/s | 1 | CC(=O)NC1C2CN(c3ccc(-n4nc(-c5cccc6nn(C)cc56)c5cccc(C)c54)cn3)CC21 (stereo not drawn) [compound 55, N-[3-(5-{2′,7-dimethyl-1H,2′H-[3,4′-biindazol]-1-yl}pyridin-2-yl)-3-azabicyclo[3.1.0]hexan-6-yl]acetamide] | 20 K

Second part, the compound before the results:

Row | Compound | EC50 (STING AQ-variant) | EC50 (STING R232H-variant) | EC50 (STING R293Q-variant) | EC50 (STING HAQ-variant) | EC50 (STING H232R-variant) | Papp A→B at 10 μM (in vitro) | efflux ratio at 10 μM (in vitro) | thermal shift (ΔTm) [1]
5 | Cc1cccc2c(-c3cccc4nn(C)cc34)nn(-c3ccc(N4CCC5(CC4)C(=O)N(C)C(=O)N5C)nc3)c12 [compound 9, 8-(5-{2′,7-dimethyl-1H,2′H-[3,4′-biindazol]-1-yl}pyri-din-2-yl)-1,3-dimethyl-1,3,8-triazaspiro[4.5] decane-2,4-dione] | 0.7 µM | 0.2 µM | 0.6 µM | 1 µM | 0.1 µM | 23 ×10⁻⁶ cm/s | 0.3 | 23 K
6 | CC(=O)N1CCN(c2ccc(-n3nc(-c4cccc5nn(C)cc45)c4cccc(C)c43)cn2)CC1 [compound 15, 1-[4-(5-{2′,7-dimethyl-1H,2′H-[3,4′-biindazol]-1-yl}pyridin-2-yl)piperazin-1-yl]ethan-1-one] | 0.7 µM | 0.2 µM | 0.7 µM | 1 µM | 0.2 µM | 26 ×10⁻⁶ cm/s | 0.5 | 21 K
7 | Cc1cccc2c(-c3cccc4nn(C)cc34)nn(-c3ccc(N4CCC(S(C)(=O)=O)CC4)nc3)c12 [compound 18, 1-[6-(4-methanesulfonylpi-peridin-1-yl)pyridin-3-yl]-2′,7-dimethyl-1H,2′H-3,4′-biindazole] | 0.6 µM | 0.2 µM | 0.7 µM | 0.7 µM | 0.2 µM | 36 ×10⁻⁶ cm/s | 0.3 | 22 K
8 | Cc1cccc2c(-c3cccc4nn(C)cc34)nn(-c3ccc(N4CCOCC4)nc3)c12 [compound 17, 2′,7-dimethyl-1-[6-(mor-pholin-4-yl)pyridin-3-yl]-1H,2′H-3,4′-biindazole] | 5.7 µM | 2 µM | 6.1 µM | 6.8 µM | 2.1 µM | 26 ×10⁻⁶ cm/s | 0.3 | 16 K
9 | Cc1cccc2c(-c3cccc4nn(C)cc34)nn(-c3ccc(N4CCC5(CC4)CNC5=O)nc3)c12 [compound 10, 7-(5-{2′,7-dimethyl-1H,2′H-[3,4′-biindazol]-1-yl}pyri-din-2-yl)-2,7-dia-zaspiro[3.5]nonan-1-one] | 2.2 µM | 0.5 µM | 2.1 µM | 2.1 µM | 0.4 µM | 26 ×10⁻⁶ cm/s |  | 20 K
10 | Cc1cccc2c(-c3cccc4nn(C)cc34)nn(-c3ccc(N4CCN(C(N)=O)CC4)nc3)c12 [Example #7, 4-(5-{2′,7-dimethyl-1H,2′H-[3,4′-biindazol]-1-yl}pyri-din-2-yl)piperazine-1-car-boxamide] | 0.6 µM | 0.2 µM | 0.7 µM | 0.8 µM | 0.2 µM | 28 ×10⁻⁶ cm/s | 0.6 | 22 K
11 | Cc1cccc2c(-c3cccc4nn(C)cc34)nn(-c3ccc(N4CCC5(CCC(=O)N5)CC4)nc3)c12 [Example #2, 8-(5-{2′,7-dimethyl-1H,2′H-[3,4′-biindazol]-1-yl}pyri-din-2-yl)-1,8-dia-zaspiro[4.5]decan-2-one] | 0.2 µM | 0.05 µM | 0.4 µM | 0.6 µM | 0.09 µM | 20 ×10⁻⁶ cm/s | 0.6 | 22 K

Source: US12065427B2, “Heterocyclic compounds capable of activating STING” (BOEHRINGER INGELHEIM INTERNATIONAL GMBH, priority 2021, dated 2024)
